Reference: PubChem BioAssay AID248 (DTP/NCI, 2004)
Where “and” joins values, the source holds several entries; their conditions need not be identical. Equal values may be shown once. Inconclusive results and toxic doses are left out. Cut-off read from the data, not from the text of the source: active = T/C of 150% or more; inactive = T/C below 125%.

Test system: L1210 leukemia ip in BDF1 mice, survival T/C
Assay: NCI In Vivo Anticancer Drug Screen. Data for tumor model L1210 Leukemia (intraperitoneal) in B6D2F1 (BDF1) mice
Settings: endpoint: mean survival time, higher = longer survival
How it was run: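 Transplanted-tumor mice were given test agent; controls received vehicle only. Survival readings from the two groups were divided (treated over control).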

[1] = dose: 100.0 mg/kg/injection, schedule: Q04DX003 (ip), vehicle: saline with Tween-80
[2] = dose: 200.0 mg/kg/injection, schedule: Q04DX003 (ip), vehicle: saline with Tween-80
[3] = dose: 400.0 mg/kg/injection, schedule: Q04DX003 (ip), vehicle: saline with Tween-80
[4] = dose: 100.0 mg/kg/injection, schedule: Q01DX009 (ip), vehicle: Klucel (hydroxypropylcellulose) (HPC)
[5] = dose: 100.0 mg/kg/injection, schedule: Q04DX003 (ip), vehicle: Klucel (hydroxypropylcellulose) (HPC)
[6] = dose: 200.0 mg/kg/injection, schedule: Q04DX003 (ip), vehicle: Klucel (hydroxypropylcellulose) (HPC)
[7] = dose: 400.0 mg/kg/injection, schedule: Q04DX003 (ip), vehicle: Klucel (hydroxypropylcellulose) (HPC)
[8] = dose: 200.0 mg/kg/injection, schedule: Q01DX009 (ip), vehicle: Klucel (hydroxypropylcellulose) (HPC)
[9] = dose: 100.0 mg/kg/injection, schedule: Q01DX001 (ip), vehicle: saline with Tween-80
[10] = dose: 100.0 mg/kg/injection, schedule: Q04DX002 (ip), vehicle: saline with Tween-80
[11] = dose: 200.0 mg/kg/injection, schedule: Q01DX001 (ip), vehicle: saline with Tween-80
[12] = dose: 200.0 mg/kg/injection, schedule: Q04DX002 (ip), vehicle: saline with Tween-80
[13] = dose: 400.0 mg/kg/injection, schedule: Q01DX001 (ip), vehicle: saline with Tween-80
[14] = dose: 400.0 mg/kg/injection, schedule: Q04DX002 (ip), vehicle: saline with Tween-80
[15] = dose: 100.0 mg/kg/injection, schedule: Q01DX001 (ip), vehicle: carboxymethylcellulose (CMC)
[16] = dose: 200.0 mg/kg/injection, schedule: Q01DX001 (ip), vehicle: carboxymethylcellulose (CMC)
[17] = dose: 400.0 mg/kg/injection, schedule: Q01DX001 (ip), vehicle: carboxymethylcellulose (CMC)
[18] = dose: 400.0 mg/kg/injection, schedule: Q01DX009 (ip), vehicle: Klucel (hydroxypropylcellulose) (HPC)

Measured: T/C

FC(F)(F)C(Cl)Br (centres undefined)
inactive: dose: 25.0 mg/kg/injection, schedule: Q04DX003 (ip), vehicle: saline 106 % of control | dose: 50.0 mg/kg/injection, schedule: Q04DX003 (ip), vehicle: saline 104 % of control | dose: 100.0 mg/kg/injection, schedule: Q01DX001 (ip), vehicle: saline 101 % of control | [1] 98 % of control | dose: 100.0 mg/kg/injection, schedule: Q04DX003 (ip), vehicle: saline 97 % of control | dose: 150.0 mg/kg/injection, schedule: Q04DX003 (ip), vehicle: saline 98 % of control | [2] 97 % of control | dose: 225.0 mg/kg/injection, schedule: Q04DX003 (ip), vehicle: saline 101 % of control | dose: 335.0 mg/kg/injection, schedule: Q04DX003 (ip), vehicle: saline 96 % of control | [3] 106 % of control | dose: 1000.0 mg/kg/injection, schedule: Q05DX002 (ip), vehicle: water 97 % of control | dose: 2000.0 mg/kg/injection, schedule: Q05DX002 (ip), vehicle: water 108 % of control

O=[N+]([O-])/C=C/c1ccc(O)cc1
inactive: dose: 50.0 mg/kg/injection, schedule: Q01DX015 (ip), vehicle: saline 97 % of control | dose: 50.0 mg/kg/injection, schedule: Q04DX003 (ip), vehicle: acetone 96 % of control

OCCNc1nc2ccc(Br)cc2c2ccccc12
inactive: [4] 87 % of control | [5] 93 % of control | [6] 93 % of control | [7] 106 % of control

COc1ccc(C=NCCN=Cc2ccc(OC)cc2)cc1
inactive: dose: 50.0 mg/kg/injection, schedule: Q01DX009 (ip), vehicle: Klucel (hydroxypropylcellulose) (HPC) 88 % of control | [4] 106 % of control | [5] 86 % of control | [8] 104 % of control | [7] 90 % of control

COc1ccc(Cl)cc1C/C=N/NC(=O)C[N+](C)(C)C
inactive: dose: 75.0 mg/kg/injection, schedule: Q01DX001 (ip), vehicle: saline 92 % of control

CCOC(=O)CCC(C)=O
inactive: dose: 100.0 mg/kg/injection, schedule: Q01DX009 (ip), vehicle: saline 102 % of control | dose: 200.0 mg/kg/injection, schedule: Q01DX009 (ip), vehicle: saline 96 % of control | dose: 400.0 mg/kg/injection, schedule: Q01DX009 (ip), vehicle: saline 96 % of control

Nc1nc(N)c2cc(NCc3ccccc3Cl)ccc2n1
inactive: dose: 3.12 mg/kg/injection, schedule: Q01DX009 (ip), vehicle: saline with Tween-80 111 % of control | dose: 6.25 mg/kg/injection, schedule: Q01DX009 (ip), vehicle: saline with Tween-80 103 % of control | dose: 6.25 mg/kg/injection, schedule: Q04DX003 (ip), vehicle: saline 94 % of control | dose: 12.5 mg/kg/injection, schedule: Q01DX009 (ip), vehicle: saline with Tween-80 95 % of control | dose: 12.5 mg/kg/injection, schedule: Q04DX003 (ip), vehicle: saline 102 % of control | dose: 25.0 mg/kg/injection, schedule: Q01DX001 (ip), vehicle: acetone 100 % of control

O=C(Nc1ccc(Cl)cc1[N+](=O)[O-])Oc1ccc(-c2ccccc2)cc1Cl
inactive: [9] 92 % of control | dose: 100.0 mg/kg/injection, schedule: Q01DX009 (ip), vehicle: saline with Tween-80 95 % of control and 91 % of control | [10] 101 % of control and 102 % of control | [1] 97 % of control | [11] 94 % of control | dose: 200.0 mg/kg/injection, schedule: Q01DX009 (ip), vehicle: saline with Tween-80 94 % of control and 89 % of control | [12] 101 % of control and 91 % of control | [2] 103 % of control | [13] 89 % of control | dose: 400.0 mg/kg/injection, schedule: Q01DX009 (ip), vehicle: saline with Tween-80 99 % of control and 103 % of control | [14] 88 % of control and 91 % of control | [3] 103 % of control

O=[N+]([O-])/C=C\c1cccc(OCc2ccccc2)c1
inactive: dose: 50.0 mg/kg/injection, schedule: Q01DX001 (ip), vehicle: carboxymethylcellulose (CMC) 101 % of control | [15] 103 % of control | [16] 92 % of control | [17] 97 % of control

ClCC[n+]1ccc(-c2cc[n+](CCCl)cc2)cc1
inactive: dose: 156.0 micrograms/kg/injection, schedule: Q01DX Z (ip), vehicle: saline 110 % of control | dose: 313.0 micrograms/kg/injection, schedule: Q01DX Z (ip), vehicle: saline 100 % of control | dose: 625.0 micrograms/kg/injection, schedule: Q01DX Z (ip), vehicle: saline 98 % of control | dose: 1250.0 micrograms/kg/injection, schedule: Q01DX Z (ip), vehicle: saline 98 % of control

CCOC(=O)C(C)(C)C(C)=O
inactive: [4] 99 % of control | [5] 103 % of control | [8] 99 % of control | [6] 103 % of control | [18] 95 % of control | [7] 97 % of control

OCC1C2CC3C(C2)C13 (centres undefined)
inactive: [15] 101 % of control | [16] 93 % of control | [17] 90 % of control

O=c1[nH]cnc2ccc([N+](=O)[O-])cc12
inactive: dose: 50.0 mg/kg/injection, schedule: Q04DX003 (ip), vehicle: Klucel (hydroxypropylcellulose) (HPC) 101 % of control | [5] 103 % of control

O=C(Nc1ccc2c(c1)C(S)c1ccccc1-2)C(F)(F)F (centres undefined)
inactive: [15] 96 % of control | [16] 101 % of control | [17] 95 % of control

CCCCCCCC(O)CCCCC (centres undefined)
inactive: [4] 104 % of control | [5] 93 % of control | [8] 98 % of control | [6] 104 % of control | [18] 102 % of control | [7] 89 % of control

CCOC(=O)CNC(=O)C1OC(n2cnc3c(N)ncnc32)C2OC(C)(C)OC12 (centres undefined)
inactive: dose: 100.0 mg/kg/injection, schedule: Q01DX005 (ip), vehicle: saline 95 % of control | dose: 200.0 mg/kg/injection, schedule: Q01DX005 (ip), vehicle: saline 92 % of control

CC(C)=NOCCCCON=C(C)C
inactive: [9] 101 % of control | [10] 95 % of control and 103 % of control | [11] 100 % of control | [12] 109 % of control and 88 % of control | [13] 92 % of control | [14] 103 % of control and 88 % of control

CCC(C(O)c1ccccc1)[N+](=O)[O-] (centres undefined)
inactive: dose: 100.0 mg/kg/injection, schedule: Q04DX003 (ip), vehicle: other 100 % of control | dose: 200.0 mg/kg/injection, schedule: Q04DX003 (ip), vehicle: other 100 % of control | dose: 400.0 mg/kg/injection, schedule: Q04DX003 (ip), vehicle: other 96 % of control
